# Experimental data reported in US9493435B2, “IRE-1α inhibitors” (MannKing Corporation, priority 2009, dated 2016).
# Counter-ions that a name gives are not always drawn.
# Assays:
# [1] = tested on: IRE-1α-mediated XBP-1 splicing in human myeloma MM.1s cells; test: Cellular XBP-1 splicing assay in myeloma cells (RT-PCR); format: cell-based; settings: average EC50, endogenous XBP-1 splicing in myeloma cells, DTT stress
# Experimental: After an additional 45 minutes (2 hours total) with compound and DTT, the cells are harvested with TRIZOL® (a mono-phasic solution of phenol and guanidine isothiocyanate), and total RNA is prepared as directed by the manufacturer (Invitrogen). Human XBP-1 is amplified by RT-PCR with the following primers, which flank the 26 base unconventional intron excised by IRE-1α:
# RT-PCR of unstressed (U) cells then generates the upper band. When cells are stressed (S) with the endoplasmic reticulum (ER) stressing agent DTT, IRE-1α is activated due to accumulating unfolded protein and the resulting RT-PCR product is 26 base pairs shorter.
# Compounds which pass specificity assays are assayed for cellular EC50 using endogenous XBP-1 splicing in myeloma cells. XBP-1 is regulated through the excision of a 26 nucleotide intron from the XBP-1 mRNA by the highly specific endoribonuclease activity of IRE-1α. […] This splicing event is used to measure IRE-1α activity on XBP-1 mRNA in cells and tissues.
# Briefly, compounds are incubated in the presence or absence of an ER stress agent (e.g., DTT), and the ratio of XBP-1u (unspliced) to XBP-1s (spliced) is quantified by RT-PCR.
# [2] = molecular target: human IRE-1α (GST-IRE-1α) (Homo sapiens (Human), UniProt O75460); test: IRE-1α assay (cleavage of mini-XBP-1 mRNA stem-loop substrate); format: biochemical; settings: average IC50 for inhibition of IRE-1α in vitro
# human IRE-1α (GST-IRE-1α), sequence (O75460 19-977): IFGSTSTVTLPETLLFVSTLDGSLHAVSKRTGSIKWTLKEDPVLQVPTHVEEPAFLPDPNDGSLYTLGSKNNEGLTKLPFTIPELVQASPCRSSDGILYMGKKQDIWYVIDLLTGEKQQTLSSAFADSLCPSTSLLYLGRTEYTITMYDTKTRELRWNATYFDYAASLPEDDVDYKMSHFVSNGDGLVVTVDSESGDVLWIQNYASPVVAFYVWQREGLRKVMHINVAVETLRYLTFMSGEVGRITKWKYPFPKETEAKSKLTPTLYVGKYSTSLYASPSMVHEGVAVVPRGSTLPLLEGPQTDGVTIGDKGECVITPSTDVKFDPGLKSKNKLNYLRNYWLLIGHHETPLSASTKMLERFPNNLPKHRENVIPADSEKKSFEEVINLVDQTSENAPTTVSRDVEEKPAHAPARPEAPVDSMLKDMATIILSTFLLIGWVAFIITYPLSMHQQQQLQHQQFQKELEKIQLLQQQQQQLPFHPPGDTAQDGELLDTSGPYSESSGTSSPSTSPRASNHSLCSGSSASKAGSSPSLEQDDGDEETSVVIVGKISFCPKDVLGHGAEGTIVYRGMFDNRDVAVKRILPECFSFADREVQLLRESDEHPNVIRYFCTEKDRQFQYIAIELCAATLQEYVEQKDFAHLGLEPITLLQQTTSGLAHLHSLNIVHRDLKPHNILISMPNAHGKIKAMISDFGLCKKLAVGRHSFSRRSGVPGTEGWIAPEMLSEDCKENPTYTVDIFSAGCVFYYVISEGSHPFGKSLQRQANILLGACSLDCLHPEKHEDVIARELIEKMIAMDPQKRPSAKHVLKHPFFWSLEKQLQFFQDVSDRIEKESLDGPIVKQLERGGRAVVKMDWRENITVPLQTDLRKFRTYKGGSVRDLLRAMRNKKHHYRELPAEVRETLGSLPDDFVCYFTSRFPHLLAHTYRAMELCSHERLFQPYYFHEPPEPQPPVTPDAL
# Experimental: A fusion protein comprising glutathione S transferase (GST) and human IRE-1α (GST-IRE-1α) obtained from a 500 ml baculovirus-infected insect cell culture can be used to measure IRE-1α activity in vitro. Five μl of a reaction mixture comprising 1× reaction buffer (5× reaction buffer is 100 mM Hepes pH 7.5, 250 mM KOAc, 2.5 mM MgCl2), 3 mM DTT, and 0.4% polyethylene glycol water is added to each well of 384 well plates. Twenty-five nanoliters of a 1 mM test compound solution are added to test wells. […] Negative control wells contain only reaction mixture and test compound. After spinning the plates at 1200 rpm for 30 seconds, 3 μl of an IRE-1α human mini-XBP-1 mRNA stem-loop substrate [NT] ID NO:1), labeled with the fluorescent dye Cy5 at the [NT] end, are added to each well of a control plate. The plates are again spun at 1200 rpm for 30 seconds. […] The plates are covered with lids and incubated for one hour at 30° C. The plates are then transferred to an […] microplate reader. Data is analyzed using data analysis software, and the percent activity of IRE-1α is calculated.
"EC50 ([1]; Homo sapiens, MM1.S) [µM]",IC50 [2] [µM],EC50 [1] [µM],SMILES
< 10,< 1,–,O=Cc1c(O)ccc2cc(N3CCC(N4CCCCC4)C3)ccc12 (centres unmarked) [Compound 117]
< 10,< 0.1,–,O=Cc1c(O)ccc2cc(/C=C/C(=O)N3CCOCC3)ccc12 [Compound 32]
> 10,> 1,–,CS(=O)(=O)NC1CCCN(c2ccc3c(C=O)c(O)ccc3c2)C1 (centres unmarked) [Compound 94]
> 10,< 1,–,O=Cc1c(O)ccc2cc(-c3ccc(C(=O)N4CCOCC4)cc3Cl)ccc12 [Compound 29]
< 10,< 0.1,–,COCCNCCNC(=O)c1ccc(-c2ccc3c(C=O)c(O)ccc3c2)cn1 [Compound 125]
> 10,< 1,–,O=Cc1c(O)ccc2ccc(OS(=O)(=O)C(F)(F)F)cc12 [Compound 177]
> 10,> 1,–,CC(C)N1CCN(c2ccc3ccc(O)c(C=O)c3c2)CC1 [Compound 159]
> 10,> 1,–,CNC(=O)c1ccc(-c2ccc3c(C=O)c(O)ccc3c2)cc1 [Compound 9]
> 10,> 1,–,O=Cc1c(O)ccc2cc(N3CCCC(NCc4ccccn4)C3)ccc12 (centres unmarked) [Compound 108]
> 10,> 1,–,CCOC(=O)CCc1ccc2c(C=O)c(O)ccc2c1 [Compound 40]
> 10,> 1,–,O=Cc1c(O)ccc2cc(N3CCN(c4cccnc4)CC3)ccc12 [Compound 103]
< 10,< 1,–,NCCOCCOCCNC(=O)c1ccc(-c2ccc3c(C=O)c(O)ccc3c2)s1 [Compound 45]
< 10,< 1,–,CN1CCN(C(=O)c2coc(-c3ccc4c(C=O)c(O)ccc4c3)n2)CC1 [Compound 76]
> 10,< 1,–,CNC(=O)C1CCN(c2ccc3c(C=O)c(O)ccc3c2)C1 (centres unmarked) [Compound 127]
> 10,> 1,–,CN(C)C1CCN(c2ccc3ccc(O)c(C=O)c3c2)C1 (centres unmarked) [Compound 135]
> 10,> 1,–,CN(Cc1ccccc1)C1CCN(c2ccc3ccc(O)c(C=O)c3c2)C1 (centres unmarked) [Compound 152]
< 10,< 0.1,–,CN1CCC(NC(=O)c2ccc(-c3ccc4c(C=O)c(O)ccc4c3)s2)C1 (centres unmarked) [Compound 79]
> 10,< 1,–,O=Cc1c(O)ccc2cc(N3CCC(NCc4ccccn4)CC3)ccc12 [Compound 114]
< 10,< 1,–,CN1CCN(C(=O)C2CCN(c3ccc4c(C=O)c(O)ccc4c3)C2)CC1 (centres unmarked) [Compound 112]
< 10,< 1,–,O=Cc1c(O)ccc2cc(CCC(=O)N3CCOCC3)ccc12 [Compound 52]
> 10,< 1,–,O=Cc1c(O)ccc2cc(N3CCC(NCc4ccccc4)CC3)ccc12 [Compound 97]
> 10,< 1,–,O=Cc1c(O)ccc2cc(N3CCN(Cc4cccnc4)CC3)ccc12 [Compound 100]
< 10,> 1,–,CN1CCN(C2CCN(c3ccc4c(C=O)c(O)ccc4c3)C2)CC1 (centres unmarked) [Compound 118]
< 10,> 1,–,O=Cc1c(O)ccc2cc(-c3ccc(C(=O)NCC4CCCCN4)o3)ccc12 (centres unmarked) [Compound 77]
> 10,> 1,–,O=Cc1c(O)ccc2cc(N3CCN(c4ccccn4)CC3)ccc12 [Compound 81]
< 10,< 0.1,–,CN1CCN(c2ncc(-c3ccc4c(C=O)c(O)ccc4c3)cn2)CC1 [Compound 80]
> 10,> 1,–,O=Cc1c(O)ccc2cc(OCC(=O)O)ccc12 [Compound 178]

# Second part, the molecule before the results:
SMILES,"EC50 ([1]; Homo sapiens, MM1.S) [µM]",IC50 [2] [µM],EC50 [1] [µM]
O=Cc1c(O)ccc2cc(CCC(=O)O)ccc12 [Compound 39],> 10,< 1,–
O=Cc1c(O)ccc2cc(-c3ccc(C(=O)N4CCNCC4)s3)ccc12 [Compound 53],< 10,< 1,–
CN(Cc1ccccc1)C(=O)C1CCN(c2ccc3ccc(O)c(C=O)c3c2)C1 (centres unmarked) [Compound 134],> 10,> 1,–
CN1CCN(c2ncc(-c3ccc4c(C=O)c(O)ccc4c3)s2)CC1 [Compound 121],< 10,< 0.1,–
O=Cc1c(O)ccc2cc(-c3ccc(C(=O)NC4CCNC4)s3)ccc12 (centres unmarked) [Compound 73],< 10,< 0.1,–
CN(Cc1ccncc1)C1CCN(c2ccc3ccc(O)c(C=O)c3c2)C1 (centres unmarked) [Compound 155],> 10,> 1,–
O=Cc1c(O)ccc2cc(-c3ccc(C(=O)NCC4CCCCN4)s3)ccc12 (centres unmarked) [Compound 41],< 10,< 0.1,–
O=Cc1c(O)ccc2cc(N3CCC(N4CCOCC4)CC3)ccc12 [Compound 82],< 10,< 1,–
CN1CCN(C(=O)c2cncc(-c3ccc4c(C=O)c(O)ccc4c3)c2)CC1 [Compound 67],< 10,< 1,–
"CN1CCN(c2ccc3c(C=O)c(O)ccc3c2)CC1 [Compound 58, 2-Hydroxy-6-(4-methyl-piperazin-1-yl)-naphthalene-1-carbaldehyde hydrochloride]",< 10,> 1,–
CN1CCN(C(=O)C2CCN(c3ccc4c(C=O)c(O)ccc4c3)CC2)CC1 [Compound 91],> 10,> 1,–
CN1CCCCC1CNC(=O)c1ccc(-c2ccc3c(C=O)c(O)ccc3c2)s1 (centres unmarked) [Compound 62],< 10,< 0.1,–
O=Cc1c(O)ccc2cc(-c3ccc(C(=O)NCC4CCCNC4)s3)ccc12 (centres unmarked) [Compound 42],< 10,< 0.1,–
O=Cc1c(O)ccc2cc(-c3ccc(C(=O)NC4CCCNC4)o3)ccc12 (centres unmarked) [Compound 171],< 10,< 0.1,–
CN1CCN(C2CCN(c3ccc4ccc(O)c(C=O)c4c3)C2)CC1 (centres unmarked) [Compound 138],> 10,> 1,–
CN1CCN(C2CCN(c3ccc4c(C=O)c(O)ccc4c3)CC2)CC1 [Compound 86],< 10,< 0.01,–
CC(=O)NC1CCN(c2ccc3ccc(O)c(C=O)c3c2)C1 (centres unmarked) [Compound 156],> 10,> 1,–

SMILES,"EC50 ([1]; Homo sapiens, MM1.S) [µM]",IC50 [2] [µM],EC50 [1] [µM]
O=Cc1c(O)ccc2cc(N3CCC(NCc4ccccc4)C3)ccc12 (centres unmarked) [Compound 153],> 10,> 1,–
COCCNC(=O)c1ccc(-c2ccc3c(C=O)c(O)ccc3c2)cc1 [Compound 170],–,> 1,< 10
O=Cc1c(O)ccc2cc(-c3ccc(C(=O)NCCCN4CCOCC4)s3)ccc12 [Compound 37],< 10,< 0.1,–
O=Cc1c(O)ccc2ccc(N3CCC(C(=O)N4CCOCC4)C3)cc12 (centres unmarked) [Compound 149],> 10,> 1,–
Cc1cc(C(=O)N2CCN(C)CC2)sc1-c1ccc2c(C=O)c(O)ccc2c1 [Compound 34],< 10,< 0.1,–
O=Cc1c(O)ccc2cc(-c3ccc(C(=O)NCCN4CCOCC4)nc3)ccc12 [Compound 126],< 10,< 0.1,–
O=Cc1c(O)ccc2cc(-c3ccc(C(=O)NCCN4CCOCC4)cc3)ccc12 [Compound 139],< 10,< 0.1,–
CN1CCN(C(=O)c2ccc(Cl)c(-c3ccc4c(C=O)c(O)ccc4c3)c2)CC1 [Compound 27],> 10,< 1,–
Cc1nc(-c2ccc3c(C=O)c(O)ccc3c2)sc1C(=O)NC1CCNCC1 [Compound 144],< 10,< 0.1,–
CN1CCN(C(=O)c2cnc(-c3ccc4c(C=O)c(O)ccc4c3)s2)CC1 [Compound 61],< 10,< 0.1,–
CN(Cc1ccccc1)C1CCN(c2ccc3c(C=O)c(O)ccc3c2)C1 (centres unmarked) [Compound 146],> 10,> 1,–
COCCNC(=O)c1cccc(-c2ccc3c(C=O)c(O)ccc3c2)n1 [Compound 6],> 10,< 0.1,–
CN(C)C(=O)/C=C/c1ccc2c(C=O)c(O)ccc2c1 [Compound 31],> 10,< 0.1,–
O=Cc1c(O)ccc2cc(N3CCC(C(=O)N4CCOCC4)CC3)ccc12 [Compound 110],> 10,< 1,–
O=Cc1c(O)ccc2ccc(N3CCC(C(=O)N4CCCCC4)C3)cc12 (centres unmarked) [Compound 133],> 10,> 1,–
CN(C)CCNC(=O)c1ccc(-c2ccc3c(C=O)c(O)ccc3c2)s1 [Compound 72],< 10,< 0.1,–
CN1CCN(C(=O)C2CCN(c3ccc4ccc(O)c(C=O)c4c3)C2)CC1 (centres unmarked) [Compound 150],> 10,> 1,–
